Assay results as given in patent publication US6034246A, “2-arylbenzazole compounds” (Cancer Research Campaign Technology Limited, priority 1995, dated 2000).

Tests used:
NCI HOP-92 = test: in vitro inhibition of growth of human lung cancer cell line NCI HOP-92 (Table 1); format: cell-based
Excerpt: (§1) Tables 1 to 4 at the end of the present description show in vitro test results obtained in various sets of experiments for the cytotoxic activity of several of the benzazole compounds concerned, including also for reference results for the compound CJM 126 and comparative results for compound DF129, when tested against a range of tumor cell lines which includes ovarian, lung and certain colon and renal cancer cells from the National Cancer Institute (USA) collection. As usual the results are expressed in terms of IS50 values (concentration or dosage required to reduce cell growth or proliferation by 50%) calculated from dose-effect curves plotted for cultures of the cells in question.
(§2) In carrying out the in vitro studies, the cytotoxicity assays may be carried out by a method corresponding substantially to the following example: […]
(§3) On day 7 the test was terminated by the addition of 100 μl saline containing 0.002% w/v propidium iodide (Sigma), 0.3% drawing ink (Staedtler "Marsmatic 745"--Trade Mark) and 0.5% Triton X-100. The plates were kept at 4° C. overnight before reading on an inverted microscope equipped with an automated scanning stage. Fluorescence intensity was measured in arbitrary units by a photomultiplier. […]

OVCAR-5 = test: in vitro activity against human ovarian cell line OVCAR-5 (Table 2); format: cell-based
Excerpt: as §1, §2, §3

MCF-7B = test: in vitro inhibitory activity against human breast tumour cell line MCF-7B (Table 4); format: cell-based; conditions: initial seeding density 2.5 × 10^2 cells/well
Excerpt: as §1
In carrying out the in vitro studies, the cytotoxicity assays may be carried out by a method corresponding substantially to the following example:
Cells were maintained in a continuous logarithmic culture in Dublecco's medium supplemented with 10% fetal calf serum and penicillin (100 IU/ml) and streptomycin ([…]). The cells were mildly trypsinized for passage and for use in assays. On day zero, 100 μl of trypsinized tumor cells (1×10^4 /ml) were plated in the wells of 96-well flat-bottom microtiter plates. The plates were incubated for 2 days at 37° C. and 5% CO2 in air to allow the cells to adhere and resume exponential growth prior to the addition of drugs.
On day two 50 μl of the highest drug concentration was added to the wells of column 12 and from there serially diluted 3-fold to column 1 by serial transfer of 50 μl using an 8-channel micropipette. The final volume of column 1 was adjusted to 100 μl. No additions were made to the wells of rows A and B, which served as controls. […]
as §3

MT-3 = test: in vivo antitumor test, human breast carcinoma MT-3 xenotransplanted in nude mice; conditions: MT-3, optimum dose 12.5 mg/Kg/inj i.p., qd 7, 14, 21
Experimental: In one typical set of experiments, four human breast carcinomas xenotransplanted into female Ncr: nu/nu (Taconic, Germantown, U.S.A.) or male Bom: NMRI-nu/nu mice (Bomholtgaard, Ry, Denmark) were used for the evaluation of antitumor activity. Mice weighing 20-25 g at the start of experiments were held under sterile conditions at 24-26° C., 50% relative humidity and 12 hours light-dark rhythm in laminar flow shelves. The animals received autoclaved food and bedding; the drinking water was filtered and acidified (pH4.0).
The following breast carcinoma cell lines were used: BO; MCF-7 (NCI, U.S.A.); MT-1 and MT-3. The tumors BO and MCF-7 are ER^+ models: the carcinomas MT-1 and MT-3 are ER^- ones. Tumors were transplanted subcutaneously (s.c.) as pieces (2×2 mm) into the left flank of 5-8 nude mice/experimental group. Drug treatment was initiated when the tumors reached a diameter of 4-5 mm. […] Tumor size was measured twice weekly with a caliper. Median tumor volume/group was related to the first treatment day and expressed as Relative Tumor Volume (RTV). For the estimation of toxicity, body weight was determined twice weekly and the mean percentage body weight change (BCC) was calculated. In one experiment blood was obtained from the retroorbital venous plexus of mice and blood cells were determined with a Coulter counter (Model T41).

SMILES | IC50 (NCI HOP-92) [µM] | IC50 (OVCAR-5) [µM] | IC50 (MCF-7B) [µM] | evaluation (MT-3) | RTV, relative tumor volume (T/C %) (MT-3; marked * significant versus control) [%]
Nc1ccc(-c2nc3ccccc3s2)cc1I [DF129, 2-(4'-amino-3'-iodophenyl)benzothiazole] | < 0.01 | 0.3 |  |  | 
Cc1cc(-c2nc3ccccc3s2)ccc1N [DF203, 2-(4'-amino-3'-methylphenyl)benzothiazole] |  |  | 0.01 | ++ (T/C = 21-35%) | 22
